One assay concerns the target T1, HCV NS3-NS4A protease (Hepatitis C virus genotype 1b, UniProt Q9WMX2).
T1 construct: using 1.2 nM HCV NS3-NS4A protease, which was obtained according to Taremi et al; made in house
Briefly: HCV protease assay (SensoLyte 620 HCV Protease Assay kit). It counts as biochemical. Conditions: 1.2 nM HCV NS3-NS4A protease, 60 min at room temperature. Here is the method: Measurement of the inhibitory effect of compounds on HCV protease activity was performed with the SensoLyte™ 620 HCV Protease Assay kit from AnaSpec, Inc. (San Jose, Calif.) under conditions described by the supplier using 1.2 nM HCV NS3-NS4A protease, which was obtained according to Taremi et al. (Protein Science, 1998, 7, 2143-2149). The compounds were tested at a variety of concentrations in assay buffer containing a final DMSO concentration of 5%. Reactions were allowed to proceed for 60 min at room temperature and fluorescence measurements were recorded with a Tecan Infinity Spectrofluorimeter. The IC50 values were determined from the percent inhibition versus concentration data using a sigmoidal non-linear regression analysis based on four parameters with Tecan Magellan software.

The target of the next assay is T2, HCV NS3-NS4A protease 2a (Hepatitis C virus genotype 2a, UniProt Q99IB8).
T2 construct: using 2-3 nM HCV NS3-NS4A protease, which was produced according to the method of Taremi et al; made in house
Briefly: HCV protease assay (HiLyte Fluor TR/QXL 610 FRET peptide), genotype 2a. It counts as biochemical. The settings on record: 2-3 nM protease, 60 min at 30° C., read-out: IC50 Against HS3/4A 2a. Here is the method:
(§1) Measurement of the inhibitory effect of compounds on HCV protease activity was performed using the HiLyte Fluor™ TR/QXL™ 610 FRET peptide from AnaSpec, Inc. (San Jose, Calif.) under conditions developed in-house using 2-3 nM HCV NS3-NS4A protease, which was produced according to the method of Taremi et al. (Protein Science, 1998, 7, 2143-2149). The compounds were tested at a variety of concentrations in assay buffer containing a final DMSO concentration of 5%. Reactions were allowed to proceed for 60 min at 30° C. and fluorescence measurements were recorded with a PerkinElmer Victor^3 V 1420 Multilabel Counter. The IC50 values were determined from the percent inhibition versus concentration data using a sigmoidal non-linear regression analysis based on four parameters with XLfit 4.1 software.

For the next assay, the target named is T3, HCV NS3-NS4A protease 4a (Hepatitis C virus genotype 4a, UniProt O39929).
T3 construct: using 2-3 nM HCV NS3-NS4A protease, which was produced according to the method of Taremi et al; made in house
Briefly: HCV protease assay (HiLyte Fluor TR/QXL 610 FRET peptide), genotype 4a. Conditions: 2-3 nM protease, 60 min at 30° C., read-out: IC50 Against HS3/4A 4a. It counts as biochemical. The protocol: as §1

Assay [1] relates to HCV luciferase-bearing mutant replicon, NS3 R155K, in cured GS4.1 cells. Put plainly: Luciferase replicon transient transfection assay, R155K mutant replicon. The assay is classed as cell-based. Here is the method:
The luciferase replicon transient transfection assay measures the ability of a test compound to inhibit the replication of a transiently-transfected HCV luciferase-bearing wild-type or mutant replicon in cured human hepatoma cells (cured GS4.1). The mutant replicons bear a specific single-site mutation in NS3 that is known to confer resistance to protease inhibitors currently in development. The inhibition of HCV replication was measured by quantification of luciferase protein expression. This assay has been validated using a panel of replicons bearing known protease inhibitor resistance mutations and their respective reference compounds. Briefly, subconfluent cured GS4.1 cells in OptiBuffer (ThermoElectron Corp.) were electroporated with 40 μg of wild-type or mutant luciferase-bearing HCV replicon RNA. The cells were then seeded in 96-well opaque white plates at 2.4×10^4 cells/well in 150 μL/well and incubated for 4 hours at 37° C./5% CO2. […] The plates were agitated on a rotating platform at room temperature for 3 minutes and read in a Victor^3V microplate reader (Perkin-Elmer) using a 700 nm cut-off filter with a 1 second read time. EC50 values were calculated from dose response curves from the resulting best-fit equations determined by Microsoft Excel and XLfit 4.1 software.

SMILES strings stand for the structures.

T3 sequence (O39929 1027-1208): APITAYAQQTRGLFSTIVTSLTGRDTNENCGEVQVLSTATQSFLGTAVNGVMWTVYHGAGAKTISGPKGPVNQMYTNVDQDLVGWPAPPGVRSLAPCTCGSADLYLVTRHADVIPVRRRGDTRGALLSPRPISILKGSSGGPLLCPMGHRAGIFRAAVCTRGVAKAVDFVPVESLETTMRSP
T2 sequence (Q99IB8 1031-1212): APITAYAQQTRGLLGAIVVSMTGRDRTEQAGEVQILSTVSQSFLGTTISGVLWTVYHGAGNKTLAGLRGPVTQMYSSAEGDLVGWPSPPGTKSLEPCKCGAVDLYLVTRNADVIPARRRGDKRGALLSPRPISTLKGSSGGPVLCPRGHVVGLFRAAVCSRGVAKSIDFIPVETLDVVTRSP
T1 sequence (Q9WMX2 1027-1208): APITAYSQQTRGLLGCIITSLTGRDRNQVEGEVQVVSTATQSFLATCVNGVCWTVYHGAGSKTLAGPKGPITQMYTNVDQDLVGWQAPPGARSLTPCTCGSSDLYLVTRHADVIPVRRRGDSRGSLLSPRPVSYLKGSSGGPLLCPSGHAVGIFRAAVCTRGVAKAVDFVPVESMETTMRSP

With `COc1ccc2c(O[C@H]3CC[C@H]4C(=O)N(C)CCCC/C=C\[C@@H]5C[C@@]5(C(=O)NS(=O)(=O)C5(C)CC5)NC(=O)[C@@H]4C3)cc(-c3nc(C(F)(F)F)cs3)nc2c1C` [Compound 51], the IC50 at HCV NS3-NS4A protease, on HCV NS3-NS4A protease 2a and on HCV NS3-NS4A protease 4a was below 1000 nM in each case. Besides, the “Fold Change, R155K replicon” value in assay [1] (EC50 fold change, R155K replicon) was 10-20. In addition, in assay [1] (Hepatitis C virus, 96 h, read-out: EC50(nm), R155K replicon), the EC50 was in the range of 5 to 15 nM.

For the origin of these results see patent US9284307B2, “Macrocyclic serine protease inhibitors” (Idenix Pharmaceuticals LLC, priority 2009, dated 2016).
